The values that follow come from patent publication US11512079B2, “Heterocycle substituted pyridine derivative antifungal agents” (Amplyx Pharmaceuticals, Inc., priority 2017, dated 2022).

The structures appear in SMILES notation. Values after ≈ are worked out from the molar mass of the structure shown. Some results are limits rather than exact numbers.

Common to all, as to assay type: cell-based
Test [1] deals with Rhizomucor pusillus 46342. As to the kind of experiment: In vitro antifungal assay (Example IX), microdilution broth, MEC. The conditions noted are these: minimum effective concentration (shortening of hyphae), 35° C., 40-48 h, RPMI1640. In outline: (§1)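 Read-out is the minimum effective concentration: lowest compound level causing shorter hyphae than in DMSO controls, echinocandin-style. Broth microdilution used conidia or spores harvested from agar plates, cleared of mycelium and clumps, at a final 1-2×10^4 spores/mL in RPMI1640.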
(In general: Dilution methods test growth across graded concentrations, often in twofold steps.)

Test [2] concerns Aspergillus fumigatus MYA3626. Described as above. The following applies: minimum effective concentration (shortening of hyphae), 35° C., 40-48 h, RPMI1640. In outline:
as §1

For test [3], the system named is Cryptococcus neoformans H99. The experiment in a line: In vitro antifungal assay (Example IX), microdilution broth, MIC. The conditions noted are these: minimum inhibitory concentration (≥50% inhibition), 35° C., 72 h, RPMI1640. In outline: (§2)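 Yeast inocula (2.5×10^3 cells/mL, RPMI1640) were exposed to twofold compound series reaching 2-0.0019 μg/mL final, per CLSI yeast methodology. Incubation at 35° C. ran 40-48 h for Candida albicans 90028 and 72 h for Cryptococcus neoformans H99. MIC endpoints were confirmed by absorbance at 600 nm.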

The subject of another test is Candida albicans 90028. The test is described as above. The following applies: minimum inhibitory concentration (≥50% inhibition), 35° C., 40-48 h, RPMI1640. In outline: as §2
Another test deals with Cryptococcus gattii. Described as above. The conditions noted are these: minimum inhibitory concentration (≥50% inhibition), 35° C., 72 h (Cryptococcus), RPMI1640. The method, then:
Preparation of Fungal Suspension. C. albicans 90028 and C. neoformans H99 strains were streaked from frozen stocks at −80° C. onto Sabouraud Dextrose Agar (SDA) plates. These were allowed to grow for 24 h (C. albicans) and 48 h (C. neoformans) at 35° C. before using them in the assay. 5-6 individual colonies were picked and diluted into sterile water to obtain a fungal suspension. The cell density of the suspension was determined and the culture diluted with RPMI1640 medium to obtain a fungal suspension of 2.5×10^3 cells/mL. The suspension was used in the MIC measurement as described below.
Preparation of Compound Stocks and Intermediate Dilutions: The compounds were weighed and DMSO was added to prepare a 10 mg/mL stock. The solutions were mixed by vortexing and sonication at 37° C. for 5-10 mins. The resulting solutions were sterile filtered using a PTFE filter, and aliquoted (12 μL or as needed) and stored at −20° C. Intermediate compound dilutions were prepared in sterile polypropylene tubes in 100% DMSO. The compound stock solution was first diluted in DMSO to obtain a concentration of […] to 0.19 μg/mL.
MIC/MEC Measurement: 99 μL 1 of the fungal suspension in RPMI1640 prepared as above was added to each well of a 96-well round bottom assay plate. 1 μL of the intermediate compound dilutions (200-0.19 μg/mL) were added to wells of the plate. This led to a 100-fold dilution of the intermediate dilutions resulting in a final compound concentration of 2-0.0019 μg/mL in the plate. 1 μL of DMSO was added to “No drug” control wells. The solutions were mixed by shaking on a plate shaker for 10 mins and plates incubated at 35° C. for 40-48 h (C. albicans, A. fumigatus, R. pusillus) and 72 h (Cryptococcus). […] This was validated by thorough mixing and reading at 600 nm on a microplate reader. The minimum concentration that led to shortening of hyphae as compared to hyphal growth in DMSO control wells was determined as the minimum effective concentration (MEC) for A. fumigatus and R. pusillus (as read for echinocandins). The use of the MIC and MEC endpoints against yeasts and molds, respectively has been described by Pfaller M A, Duncanson F, Messer S A, Moet G J, Jones R N, Castanheira M. Antimicrob Agents Chemother. 2011. 55(11):5155-8. In vitro activity of a novel broad-spectrum antifungal, E1210, tested against Aspergillus spp. determined by CLSI and EUCAST broth microdilution methods. Results are shown in Table 2, and the letters indicate the following ranges in μg/mL: […]

What is called minimal effective concentration is the lowest level tested that produced the effect sought. Read a high minimal effective concentration as a need for much substance. As a reminder, the MIC is the least concentration at which growth counts as inhibited. Read a high MIC as weaker potency. In the case of `N#CCc1ccc(Cc2cc(-c3cccnc3N)on2)cc1` [compound 2, 2-(4-((5-(2-aminopyridin-3-yl)isoxazol-3-yl)methyl)phenyl)acetonitrile], the minimal effective concentration is over 1 µg/mL in test [1] and 0.1 to 1 µg/mL in test [2]. Moreover, the minimal inhibitory concentration (MIC) (in test [3]; against Candida albicans 90028) was over 1 µg/mL throughout.

Consider `COc1ccc(OCc2ccc(Cc3cc(-c4cccnc4N)on3)cc2)cc1OC` [compound 104, 3-(3-(4-((3,4-dimethoxyphenoxy)methyl)benzyl)isoxazol-5-yl)pyridin-2-amine], for which the minimal effective concentration in test [1] and in test [2] was over 1 µg/mL in each case. The minimum inhibitory concentration (MIC) (in test [3]; against Candida albicans 90028) was over 1 µg/mL in each case.

In the case of `N#Cc1ccc(COc2ccc(Cc3cc(-c4cccnc4N)on3)cc2)cc1` [compound 113, 4-((4-((5-(2-aminopyridin-3-yl)isoxazol-3-yl)methyl)phenoxy)methyl)benzonitrile], the minimal effective concentration in test [1] is over 1 µg/mL; in test [2], 0.1 to 1 µg/mL. In the test with Candida albicans 90028, this compound had a minimum inhibitory concentration (MIC) of over 1 µg/mL.

On to `Nc1ncccc1-c1cc(Cc2ccc(OCc3ccc(F)nc3)cc2)no1` [compound 116, 3-(3-(4-((6-fluoropyridin-3-yl)methoxy)benzyl)isoxazol-5-yl)pyridin-2-amine], for which the minimal effective concentration is over 1 µg/mL in test [1] and 0.01 to 0.1 µg/mL in test [2]. The MIC in the test with Candida albicans 90028 is over 1 µg/mL.

As to `Nc1ncccc1-c1cc(Cc2ccc(Oc3c[n+]([O-])ccn3)cc2)no1` [compound 119, 3-(4-((5-(2-aminopyridin-3-yl)isoxazol-3-yl)methyl)phenoxy)pyrazine 1-oxide], the minimal effective concentration in test [1] and in test [2] was over 1 µg/mL throughout. The compound also returned a minimal inhibitory concentration (MIC) against Candida albicans 90028 of over 1 µg/mL.

For `Nc1ncccc1-c1cc(Cc2ccc(Cn3ccccc3=O)cc2)no1` [compound 126, 1-(4-((5-(2-aminopyridin-3-yl)isoxazol-3-yl)methyl)benzyl)pyridin-2(1H)-one], the minimal effective concentration in test [1] and in test [2] was over 1 µg/mL in each case. The MIC against Candida albicans 90028 is over 1 µg/mL.

In the case of `Nc1ncccc1-c1cc(Cc2ccc(OCc3ccccc3C(F)(F)F)nc2)no1` [compound 128, 3-(3-((6-((2-(trifluoromethyl)benzyl)oxy)pyridin-3-yl)methyl)isoxazol-5-yl)pyridin-2-amine], the minimal effective concentration in test [1] is over 1 µg/mL; in test [2], 0.1 to 1 µg/mL. This compound also gave an MIC against Candida albicans 90028 of over 1 µg/mL.

Turning to `Nc1ncccc1-c1cc(Cc2ccc(OC3CCCc4cccnc43)nc2)no1` (stereo not shown) [compound 129, 3-(3-((6-((5,6,7,8-tetrahydroquinolin-8-yl)oxy)pyridin-3-yl)methyl)isoxazol-5-yl)pyridin-2-amine], the minimal effective concentration in test [1] and in test [2] was over 1 µg/mL in each case. In the test with Candida albicans 90028, the MIC was over 1 µg/mL.

As to `Nc1ccc(-c2cc(Cc3ccc(OCc4nccs4)cc3)no2)c(N)n1` [compound 133, 3-(3-(4-(thiazol-2-ylmethoxy)benzyl)isoxazol-5-yl)pyridine-2,6-diamine], the minimal effective concentration in test [1] and in test [2] was 0.1 to 1 µg/mL each time. In the test with Candida albicans 90028, this compound showed a minimum inhibitory concentration (MIC) of 0.1 to 1 µg/mL (≈ 0.264 to 2.64 µM).

As for `COc1ccc(F)cc1OCc1ccc(Cc2cc(-c3cccnc3N)on2)cc1` [compound 192, 3-(3-(4-((5-fluoro-2-methoxyphenoxy)methyl)benzyl)isoxazol-5-yl)pyridin-2-amine], the results for the minimal effective concentration in test [1] and in test [2] were over 1 µg/mL and 0.1 to 1 µg/mL, respectively. The MIC in the test on Candida albicans 90028 was 0.1 to 1 µg/mL (≈ 0.247 to 2.47 µM).

With `Nc1ncccc1-c1cc(Cc2ccc(/C=C/Cc3ccccc3)cc2)no1` [compound 194, (E)-3-(3-(4-(3-phenylprop-1-en-1-yl)benzyl)isoxazol-5-yl)pyridin-2-amine], the minimal effective concentration in test [1] was over 1 µg/mL; in test [2], 0.1 to 1 µg/mL. The compound also returned a minimum inhibitory concentration (MIC) in the test on Candida albicans 90028 of over 1 µg/mL.

Turning to `Nc1ncccc1-c1cc(Cc2ccc(OCc3ccnc(Cl)c3F)nc2)no1` [compound 210, 3-(3-((6-((2-chloro-3-fluoropyridin-4-yl)methoxy)pyridin-3-yl)methyl)isoxazol-5-yl)pyridin-2-amine], the minimal effective concentration in test [1] and in test [2] was over 1 µg/mL throughout. Further, in the test with Candida albicans 90028, the MIC is over 1 µg/mL.

Turning to `CS(=O)(=O)Nc1cccc(Cc2ccc(Cc3cc(-c4cccnc4N)on3)cc2)c1` [compound 211, N-(3-(4-((5-(2-aminopyridin-3-yl)isoxazol-3-yl)methyl)benzyl)phenyl)methanesulfonamide], the minimal effective concentration in test [1] and in test [2] was over 1 µg/mL each time. Further, the minimal inhibitory concentration (MIC) against Candida albicans 90028 was over 1 µg/mL.

In the case of `Nc1ncccc1-c1cc(Cc2ccc(OCCCc3ccc(OCc4ccccc4)cc3)nc2)no1` [compound 214, 3-(3-((6-(3-(4-(benzyloxy)phenyl)propoxy)pyridin-3-yl)methyl)isoxazol-5-yl)pyridin-2-amine], the minimal effective concentration in test [1] and in test [2] was over 1 µg/mL throughout. The compound also came in with a minimum inhibitory concentration (MIC) with Candida albicans 90028 of over 1 µg/mL.

Consider `Nc1ncccc1-c1cc(Cc2ccc(OCC(c3ccccc3)c3ccccc3)nc2)no1` [compound 215, 3-(3-((6-(2,2-diphenylethoxy)pyridin-3-yl)methyl)isoxazol-5-yl)pyridin-2-amine], for which the minimal effective concentration in test [1] and in test [2] was over 1 µg/mL each time. In the test on Candida albicans 90028, this compound registered a minimal inhibitory concentration (MIC) of over 1 µg/mL.

Compound `Cc1c(OCC(F)(F)F)ccnc1COc1ccc(Cc2cc(-c3cccnc3N)on2)cn1` [compound 217, 3-(3-((6-((3-methyl-4-(2,2,2-trifluoroethoxy)pyridin-2-yl)methoxy)pyridin-3-yl)methyl)isoxazol-5-yl)pyridin-2-amine] gave a minimal effective concentration in test [2] of over 1 µg/mL. For the same compound, the minimum inhibitory concentration (MIC) (in test [3]; in the test on Candida albicans 90028; against Cryptococcus gattii) was over 1 µg/mL each time.

As for `Nc1ncccc1-c1cc(Cc2ccc(OCc3cc(Cl)nc(Cl)c3)nc2)no1` [compound 219, 3-(3-((6-((2,6-dichloropyridin-4-yl)methoxy)pyridin-3-yl)methyl)isoxazol-5-yl)pyridin-2-amine], in test [2], the minimal effective concentration lay in the range of 0.1 to 1 µg/mL. Further, the MIC (in test [3]; against Candida albicans 90028; against Cryptococcus gattii) was over 1 µg/mL in each case.

With `Nc1ncccc1-c1cc(Cc2ccc(N3CCOCC3)nc2)no1` [compound 227, 3-(3-((6-morpholinopyridin-3-yl)methyl)isoxazol-5-yl)pyridin-2-amine], the minimal effective concentration in test [1] and in test [2] was over 1 µg/mL in each case. In the test on Candida albicans 90028, the minimum inhibitory concentration (MIC) was over 1 µg/mL.

For `Nc1ncccc1-c1cc(Cc2ccc(S(=O)(=O)N3CCOCC3)cc2)no1` [compound 228, 3-(3-(4-(morpholinosulfonyl)benzyl)isoxazol-5-yl)pyridin-2-amine], the minimal effective concentration in test [1] and in test [2] was over 1 µg/mL throughout. Also, the MIC against Candida albicans 90028 was over 1 µg/mL.

With `Nc1ncccc1-c1cc(Cc2ccc(N3CCCC3c3ccccc3)nc2)no1` (stereo not shown) [compound 229, 3-(3-((6-(2-phenylpyrrolidin-1-yl)pyridin-3-yl)methyl)isoxazol-5-yl)pyridin-2-amine], the minimal effective concentration in test [1] and in test [2] was over 1 µg/mL throughout. The compound further yielded an MIC with Candida albicans 90028 of over 1 µg/mL.

For the compound `Nc1ncccc1-c1cc(Cc2ccc(N3CCCCC3)nc2)no1` [compound 230, 3-(3-((6-(piperidin-1-yl)pyridin-3-yl)methyl)isoxazol-5-yl)pyridin-2-amine], the results for the minimal effective concentration in test [1] and in test [2] were over 1 µg/mL and 0.1 to 1 µg/mL, respectively. The MIC in the test on Candida albicans 90028 lay within 0.1 to 1 µg/mL (≈ 0.298 to 2.98 µM).
